From patent US11131677B2 (University of Washington, priority 2018, dated 2021)
Non-standard residues stand in square brackets, D forms with d. Residues, ends and D or L forms follow the SMILES beside them. dPhe(4-NH2) = Nc1ccc(C[C@@H](N)C(=O)O)cc1; dPhe(4-Cl) = N[C@H](Cc1ccc(Cl)cc1)C(=O)O; Phe(4-NH2) = Nc1ccc(C[C@H](N)C(=O)O)cc1; d2Nal = N[C@H](Cc1ccc2ccccc2c1)C(=O)O; Lys(iPr) = CC(C)NCCCC[C@H](N)C(=O)O; d3Pal = N[C@H](Cc1cccnc1)C(=O)O

Experiments:
[1] = test system: 5-AR type 1 and 2; test: Dutasteride co-treatment with T in human hepatocyte culture; settings: for Effect of dutasteride co-treatment on metabolite formation from T: p<0.01 for decreases
Protocol: (§1) A targeted metabolomics study was performed on previously collected samples from an oral T pharmacokinetics (PK) study (800 mg). T and its primary and secondary metabolites in serum were quantified, and PK data of these steroids were analyzed using the non-compartmental method. […] Additionally, T-metabolism study was also performed in human hepatocytes for 1 h. The media and cell pellets were collected for subsequent metabolomics and proteomics analyses, respectively. Effect of dutasteride treatment on androgen metabolome was also investigated, both in vivo and in vitro.

[2] = Oral testosterone pharmacokinetics and serum metabolite profile (LC-MS/MS) in men with acyline-induced experimental hypogonadism, with and without dutasteride; type: in vivo, human; settings: for AUC0-24 h at T800, fold higher than with T200: T800 vs T200; for AUC 0-24 h / Cmax / Tmax / t½ / CL/F: serum; for Average AUC0-24 h with dutasteride, % with respect to T alone: T200+D vs T200; for Average AUC0-24 h with dutasteride, % as compared to T alone: T800+D vs T800; for AUC0-24 h, fold higher as compared to T AUC0-24 h: human serum, 800 mg dose; for CL/F: male, human, oral
Protocol: T emulsion in sesame oil, mixed with milk, was administered orally to human subjects with acyline-induced experimental hypogonadism. The blood samples were collected and the serum was isolated and stored in −80° C. Steroids and their metabolites were extracted from serum using protein precipitation followed by solid-phase extraction and analyzed by UPLC coupled with SCIEX 6500 MS/MS.
Clinical study design is discussed below. All subjects provided written, informed consent prior to any study procedures. The study was approved by the University of Washington (UW) Investigational Review Board Committee.
While study was conducted with 200, 400 and 800 mg T dose, only T200 and T800 were quantified. […] Samples were mixed for 1 min by vortex mixing, and then centrifuged for 10 min at 3500×g at 4° C. […] Samples (2 mL) were loaded onto the cartridges and flow through was discarded.
Data were acquired by Analyst 1.6 software.

[3] = test system: human hepatocytes; test: T metabolism in primary human hepatocytes (metabolite formation); settings: for In vitro formation from T: primary human hepatocyte
Protocol: as §1

[4] = biological target: T1, UGT2B17 (Homo sapiens, UniProt O75795); settings: scaled by absolute UGT2B abundance in the intestine
T1 sequence (O75795 24-530): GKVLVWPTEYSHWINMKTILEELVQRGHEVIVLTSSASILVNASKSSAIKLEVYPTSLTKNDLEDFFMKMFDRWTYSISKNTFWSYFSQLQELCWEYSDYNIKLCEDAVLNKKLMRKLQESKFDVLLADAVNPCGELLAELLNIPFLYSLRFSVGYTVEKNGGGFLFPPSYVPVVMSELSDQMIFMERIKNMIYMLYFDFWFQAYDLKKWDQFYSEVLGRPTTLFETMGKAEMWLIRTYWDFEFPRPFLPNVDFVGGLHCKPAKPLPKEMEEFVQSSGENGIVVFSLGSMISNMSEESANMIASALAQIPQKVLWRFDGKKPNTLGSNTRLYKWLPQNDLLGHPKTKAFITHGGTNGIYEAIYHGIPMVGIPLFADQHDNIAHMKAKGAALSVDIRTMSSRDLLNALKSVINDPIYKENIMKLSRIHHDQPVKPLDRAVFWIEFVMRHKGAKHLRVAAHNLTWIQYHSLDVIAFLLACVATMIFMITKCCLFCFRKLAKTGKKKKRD

[5] = oral T, humans; cited from earlier work
[6] = test system: T production; settings: normal men, single injection 300 μg/kg subcutaneous; cited from earlier work
[7] = biological target: UGT2B15 (Homo sapiens, UniProt P54855)
Protocol: Oxazepam was used as a probe substrate for UGT2B15 activity by measuring oxazepam glucuronide formation (m/z 463.3→287.1, 269.1; DP 70; CE 20) with 10 μM oxazepam.

[8] = biological target: UGT2B7 (Homo sapiens, UniProt P16662)
[9] = T200 + D (200 mg oral T with dutasteride)
[10] = T800 + D (800 mg oral T with dutasteride)

UGT2B15, sequence (P54855 24-530): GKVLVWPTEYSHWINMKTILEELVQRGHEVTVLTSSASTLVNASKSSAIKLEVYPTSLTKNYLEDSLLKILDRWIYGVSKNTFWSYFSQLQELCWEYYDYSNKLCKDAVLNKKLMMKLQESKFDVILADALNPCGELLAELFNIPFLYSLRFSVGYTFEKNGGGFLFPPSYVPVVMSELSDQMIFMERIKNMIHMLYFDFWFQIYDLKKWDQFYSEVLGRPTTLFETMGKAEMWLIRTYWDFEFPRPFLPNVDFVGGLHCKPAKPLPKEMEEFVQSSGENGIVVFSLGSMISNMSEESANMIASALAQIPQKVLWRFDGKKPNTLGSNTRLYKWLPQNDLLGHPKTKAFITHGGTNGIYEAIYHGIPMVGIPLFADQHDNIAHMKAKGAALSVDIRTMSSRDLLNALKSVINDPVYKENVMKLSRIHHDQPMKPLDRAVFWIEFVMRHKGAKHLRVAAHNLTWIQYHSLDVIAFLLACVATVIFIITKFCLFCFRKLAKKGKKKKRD
UGT2B7, sequence (P16662 24-529): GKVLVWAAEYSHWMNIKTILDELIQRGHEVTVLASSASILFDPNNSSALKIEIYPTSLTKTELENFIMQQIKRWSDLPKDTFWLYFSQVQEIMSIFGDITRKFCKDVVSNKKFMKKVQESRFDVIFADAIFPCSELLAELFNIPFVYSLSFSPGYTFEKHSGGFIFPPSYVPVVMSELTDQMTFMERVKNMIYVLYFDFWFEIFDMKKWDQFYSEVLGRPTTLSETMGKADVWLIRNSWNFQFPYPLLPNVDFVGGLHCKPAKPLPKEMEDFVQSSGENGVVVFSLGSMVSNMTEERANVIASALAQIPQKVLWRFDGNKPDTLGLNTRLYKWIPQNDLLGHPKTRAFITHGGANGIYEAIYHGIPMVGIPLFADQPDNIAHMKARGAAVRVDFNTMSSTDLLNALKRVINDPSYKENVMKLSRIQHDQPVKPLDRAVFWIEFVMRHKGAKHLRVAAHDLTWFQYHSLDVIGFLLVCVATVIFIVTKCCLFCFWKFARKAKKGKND

SMILES	Effect of dutasteride co-treatment on metabolite formation from T [1]	Absolute level in pooled serum, fold of baseline eugonadal state ([2]; T200) [fold]	Average serum AUC0-24 h ([2]; T200)	Absolute level in pooled serum, fold of baseline eugonadal state ([2]; T800) [fold]	AUC 0-24 h ([2]; T200) [µM·h]	t½ ([2]; T200 (200 mg oral T)) [h]	AUC 0-24 h ([2]; T200 + D) [µM·h]	t½ [2, 9] [h]	AUC 0-24 h ([2]; T800) [µM·h]	t½ ([2]; T800 (800 mg oral T)) [h]	AUC 0-24 h ([2]; T800 + D) [µM·h]	t½ [2, 10] [h]	other results
C[C@]12CC[C@H]3[C@@H](C[C@@H](O)C4=CC(=O)CC[C@@]43C)[C@@H]1CC[C@@H]2O [6β-OH-T, 6β-hydroxytestosterone]	significant decreases	–	–	–	–	–	–	–	–	–	–	–	–
C[C@]12CC[C@@H](O)C[C@@H]1CC[C@@H]1[C@@H]2CC[C@]2(C)C(=O)CC[C@@H]12 [A, Androsterone]	–	–	–	–	–	–	–	–	–	–	–	–	Circulating level, % lower in dutasteride treated samples vs T alone ([2]; T200+D): 30%; Circulating level, % lower in dutasteride treated samples vs T alone ([2]; T800+D): 87%
C[C@]12CCC(=O)C=C1CC[C@@H]1[C@@H]2CC[C@]2(C)C(=O)CC[C@@H]12 [AED, Androstenedione]	No significant changes	2.3	373.7 nmol/L-h	14.9	0.3737	12.7	1.6349	8.3	1.5518	6.8	10.8444	5.2	Circulating level, fold higher with dutasteride vs T alone ([2]; T200+D and T800+D): 5.7 fold; AUC0-24 h at T800, fold higher than with T200 [2]: 4.2 fold; Cmax ([2]; T200): 66.3 nM; Tmax ([2]; T200): 2 h; Cmax ([2]; T200 + D): 200 nM; Tmax ([2]; T200 + D): 2 h; Cmax ([2]; T800): 280 nM; Tmax ([2]; T800): 1 h; Cmax ([2]; T800 + D): 2300 nM; Tmax ([2]; T800 + D): 2 h; In vitro formation from T [3]: 46%
C[C@]12CC[C@@H](O[C@@H]3O[C@H](C(=O)O)[C@@H](O)[C@H](O)[C@H]3O)C[C@@H]1CC[C@@H]1[C@@H]2CC[C@]2(C)C(=O)CC[C@@H]12 [AG, Androsterone glucuronide]	significant decreases	9.5	12,111 nmol/L-h	29.7	12.1108	4.9	–	4.5	65.4278	4.5	14.8677	6.3	Average AUC0-24 h with dutasteride, % with respect to T alone [2]: 21%; Average AUC0-24 h with dutasteride, % as compared to T alone [2]: 22%; AUC0-24 h, fold higher as compared to T AUC0-24 h [2]: 389 fold
C[C@]12CCC(=O)C[C@@H]1CC[C@@H]1[C@@H]2CC[C@]2(C)[C@@H](O)CC[C@@H]12 [DHT, 5α-Dihydrotestosterone]	significant decreases	0.6	26.5 nmol/L-h	2.2	0.0265	17.6	0.0096	24.0	0.0874	6.9	0.0266	17.9	Average AUC0-24 h with dutasteride, % lower than T alone ([2]; T200): 64%; Average AUC0-24 h with dutasteride, % lower than T alone ([2]; T800): 70%; AUC0-24 h at T800, fold higher than with T200 [2]: 3.3 fold; Cmax ([2]; T200): 2 nM; Tmax ([2]; T200): 2 h; Cmax ([2]; T200 + D): 0.8 nM; Tmax ([2]; T200 + D): 4 h; Cmax ([2]; T800): 8.4 nM; Tmax ([2]; T800): 2 h; Cmax ([2]; T800 + D): 1.8 nM; Tmax ([2]; T800 + D): 4 h
C[C@]12CCC(=O)C[C@@H]1CC[C@@H]1[C@@H]2CC[C@]2(C)[C@@H](O[C@@H]3O[C@H](C(=O)O)[C@@H](O)[C@H](O)[C@H]3O)CC[C@@H]12 [DHTG, DHT-glucuronide]	–	7.5	–	40.6	–	–	–	–	–	–	–	–	–
C[C@]12CC[C@@H](O[C@@H]3O[C@H](C(=O)O)[C@@H](O)[C@H](O)[C@H]3O)C[C@H]1CC[C@@H]1[C@@H]2CC[C@]2(C)C(=O)CC[C@@H]12 [EtioG, Etiocholanolone glucuronide]	–	13	2160 nmol/L-h	39.5	2.1604	5.2	–	10.5	14.9815	7.8	27.0917	9.9	Average AUC0-24 h with dutasteride, % with respect to T alone [2]: 151%; Average AUC0-24 h with dutasteride, % as compared to T alone [2]: 180%; AUC0-24 h, fold higher as compared to T AUC0-24 h [2]: 87 fold
C[C@]12CC[C@H]3[C@@H](CCC4=CC(=O)CC[C@@]43C)[C@@H]1CC[C@@H]2O [T, Testosterone, reference compound]	–	–	–	–	0.0816	12.0	0.0847	7.0	0.1689	5.3	0.2938	5.7	Change in serum T levels with dutasteride ([2]; 200 mg T dose): no significant increase; Increase in circulating T concentrations ([2]; 4-fold increase in dose (200 to 800 mg)): 2 fold; CL/F ([2]; 200 mg, T200): 106000 mL/min; CL/F ([2]; 800 mg, T800): 259000 mL/min; CL/F ([2]; T200 + D): 120000 mL/min; CL/F ([2]; T800 + D): 147000 mL/min; Cmax ([2]; T200): 6 nM; Tmax ([2]; T200): 4 h; Cmax ([2]; T200 + D): 8.8 nM; Cmax ([2]; T800): 16.8 nM; Cmax ([2]; T800 + D): 33 nM; Tmax ([2]; T800 + D): 2 h; Contribution of UGT2B17 to intestinal glucuronidation [4]: 100%; Oral bioavailability [5]: 2-8%
C[C@]12CC[C@H]3[C@@H](CCC4=CC(=O)CC[C@@]43C)[C@@H]1CC[C@@H]2O[C@@H]1O[C@H](C(=O)O)[C@@H](O)[C@H](O)[C@H]1O [TG, Testosterone glucuronide]	No significant changes	78	857.2 nmol/L-h	277	0.8572	4.4	0.3734	4.3	14.163	3.6	8.5897	2.7	Average AUC0-24 h with dutasteride, % with respect to T alone [2]: 43%; Average AUC0-24 h with dutasteride, % as compared to T alone [2]: 60%; Proportion of total T-related species in circulation ([2]; T dosed orally to men with experimental hypogonadism): 13%; Increase in TG/T ratio of dose-normalized AUC0-24 h ([2]; changing dose from 200 to 800 mg): 9.3 fold; AUC0-24 h, fold higher as compared to T AUC0-24 h [2]: 85 fold; Level in hepatocyte media, fold lower than AG ([3]; human hepatocytes, T-treated): 3.7 fold; In vitro formation from T [3]: 42%
CC(=O)Nc1ccc(C[C@H](NC(=O)[C@H](CO)NC(=O)[C@@H](Cc2cccnc2)NC(=O)[C@@H](Cc2ccc(Cl)cc2)NC(=O)[C@@H](Cc2ccc3ccccc3c2)NC(C)=O)C(=O)N[C@H](Cc2ccc(NC(C)=O)cc2)C(=O)N[C@@H](CC(C)C)C(=O)N[C@@H](CCCCNC(C)C)C(=O)N2CCC[C@H]2C(=O)N[C@H](C)C(N)=O)cc1 [acyline] (Ac-[d2Nal][dPhe(4-Cl)][d3Pal]S[Phe(4-NH2)](Ac)[dPhe(4-NH2)](Ac)L[Lys(iPr)]P[dA]-NH2)	–	–	–	–	–	–	–	–	–	–	–	–	Duration of suppression of T production [6]: ≥ 15 days
C[C@]12C=CC(=O)N[C@@H]1CC[C@@H]1[C@@H]2CC[C@]2(C)[C@@H](C(=O)Nc3cc(C(F)(F)F)ccc3C(F)(F)F)CC[C@@H]12 [dutasteride, reference compound]	–	–	–	–	–	–	–	–	–	–	–	–	Inhibition of 5-AR type 1 and 2 mediated metabolism of T ([1]; co-treatment with T): complete inhibition
Cc1ccc(NC(=O)c2ccc(CN3CCN(C)CC3)cc2)cc1Nc1nccc(-c2cccnc2)n1 [imatinib]	–	–	–	–	–	–	–	–	–	–	–	–	Inhibition of oxazepam (UGT2B15) glucuronidation [7]: No significant inhibition; Inhibition of naloxone (UGT2B7) glucuronidation [8]: No significant inhibition
